# Source: patent publication US8063220B2, “Sulfonyl-quinoline derivatives” (Richter Gedeon Nyrt., priority 2007, dated 2011)
# Tests used:
# rat mGluR1 = target: T1, rat mGluR1 (Rattus norvegicus, UniProt P23385); test: MGluR1 receptor binding test ([3H]R214127 displacement, rat cerebellar membrane preparation); conditions: rat mGluR1, [3H]R214127 3 nM; read-out: mGlu1 Ki
# T1 construct: rat cerebellar membrane preparation was used; from tissue; host or cells: rat cerebellum (membrane preparation)
# Protocol: MGluR1 receptor binding tests were performed according to modified method of Lavreysen et al. (Mol. Pharm., 2003, 63, 1082). Based on the high homology between the human and rat mGluR1 receptors, rat cerebellar membrane preparation was used to determine the binding characteristics of reference compounds and novel compounds to the rat mGluR1. [3H]R214127 (3 nM) was used as radioligand and the nonspecific binding was determined in the presence of 1 μM of R214127.
# IC-50 values were determined from displacement curves by nonlinear regression analysis and were converted to Ki values using the equation method of Cheng and Prusoff (Biochem. Pharmacol., 1973, 22, 3099).
# rat mGluR5 = target: T2, rat mGluR5 (Rattus norvegicus, UniProt P31424); test: MGluR5 receptor binding test ([3H]-M-MPEP displacement, rat cerebro-cortical membrane preparation); conditions: rat mGluR5, [3H]-M-MPEP 2 nM; read-out: mGlu5 Ki
# T2 construct: Rat cerebro-cortical membrane preparation was used; from tissue; host or cells: rat cerebral cortex (membrane preparation)
# Protocol: Rat cerebro-cortical membrane preparation was used to determine the binding characteristics of reference compounds and novel compounds to the rat mGluR5. The A18 cell line expressing hmGluR5a (purchased from Euroscreen) was used to determine binding characteristics of the chemical compounds to the human mGluR5a receptor. [3H]-M-MPEP (2 nM) was used as radioligand. The nonspecific binding was determined in the presence of 10 μM M-MPEP.
# T2 sequence (P31424 21-1203): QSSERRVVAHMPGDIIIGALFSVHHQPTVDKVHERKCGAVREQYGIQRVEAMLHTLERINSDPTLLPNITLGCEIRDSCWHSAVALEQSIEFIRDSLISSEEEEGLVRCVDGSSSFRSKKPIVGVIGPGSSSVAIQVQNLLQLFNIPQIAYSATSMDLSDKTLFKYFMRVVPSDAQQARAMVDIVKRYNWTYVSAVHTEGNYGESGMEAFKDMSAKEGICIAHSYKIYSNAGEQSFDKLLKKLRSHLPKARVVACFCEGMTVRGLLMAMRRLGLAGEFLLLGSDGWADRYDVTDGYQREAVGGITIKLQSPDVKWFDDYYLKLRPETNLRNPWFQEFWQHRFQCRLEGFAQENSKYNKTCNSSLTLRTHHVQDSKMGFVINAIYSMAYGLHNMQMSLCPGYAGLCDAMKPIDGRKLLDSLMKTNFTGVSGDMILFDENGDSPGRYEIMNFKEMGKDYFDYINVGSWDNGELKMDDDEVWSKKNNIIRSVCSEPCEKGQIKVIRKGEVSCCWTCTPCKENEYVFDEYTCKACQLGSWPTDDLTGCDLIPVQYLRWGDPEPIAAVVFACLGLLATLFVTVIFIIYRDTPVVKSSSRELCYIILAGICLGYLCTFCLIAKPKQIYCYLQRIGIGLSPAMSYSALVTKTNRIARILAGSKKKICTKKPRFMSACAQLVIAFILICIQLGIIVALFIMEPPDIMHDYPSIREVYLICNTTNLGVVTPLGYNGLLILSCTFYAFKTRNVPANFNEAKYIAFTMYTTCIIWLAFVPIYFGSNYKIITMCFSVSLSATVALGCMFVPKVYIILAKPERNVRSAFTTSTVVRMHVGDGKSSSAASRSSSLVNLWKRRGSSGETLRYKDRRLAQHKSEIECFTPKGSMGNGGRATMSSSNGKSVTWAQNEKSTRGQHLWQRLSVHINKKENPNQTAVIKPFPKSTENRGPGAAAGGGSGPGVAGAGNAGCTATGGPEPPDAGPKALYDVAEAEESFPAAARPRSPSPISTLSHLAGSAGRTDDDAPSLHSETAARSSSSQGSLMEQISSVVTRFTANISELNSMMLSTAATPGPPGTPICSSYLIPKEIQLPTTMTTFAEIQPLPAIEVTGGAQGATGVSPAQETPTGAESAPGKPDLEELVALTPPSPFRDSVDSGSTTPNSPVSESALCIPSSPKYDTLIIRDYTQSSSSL
# T1 sequence (P23385 19-1199): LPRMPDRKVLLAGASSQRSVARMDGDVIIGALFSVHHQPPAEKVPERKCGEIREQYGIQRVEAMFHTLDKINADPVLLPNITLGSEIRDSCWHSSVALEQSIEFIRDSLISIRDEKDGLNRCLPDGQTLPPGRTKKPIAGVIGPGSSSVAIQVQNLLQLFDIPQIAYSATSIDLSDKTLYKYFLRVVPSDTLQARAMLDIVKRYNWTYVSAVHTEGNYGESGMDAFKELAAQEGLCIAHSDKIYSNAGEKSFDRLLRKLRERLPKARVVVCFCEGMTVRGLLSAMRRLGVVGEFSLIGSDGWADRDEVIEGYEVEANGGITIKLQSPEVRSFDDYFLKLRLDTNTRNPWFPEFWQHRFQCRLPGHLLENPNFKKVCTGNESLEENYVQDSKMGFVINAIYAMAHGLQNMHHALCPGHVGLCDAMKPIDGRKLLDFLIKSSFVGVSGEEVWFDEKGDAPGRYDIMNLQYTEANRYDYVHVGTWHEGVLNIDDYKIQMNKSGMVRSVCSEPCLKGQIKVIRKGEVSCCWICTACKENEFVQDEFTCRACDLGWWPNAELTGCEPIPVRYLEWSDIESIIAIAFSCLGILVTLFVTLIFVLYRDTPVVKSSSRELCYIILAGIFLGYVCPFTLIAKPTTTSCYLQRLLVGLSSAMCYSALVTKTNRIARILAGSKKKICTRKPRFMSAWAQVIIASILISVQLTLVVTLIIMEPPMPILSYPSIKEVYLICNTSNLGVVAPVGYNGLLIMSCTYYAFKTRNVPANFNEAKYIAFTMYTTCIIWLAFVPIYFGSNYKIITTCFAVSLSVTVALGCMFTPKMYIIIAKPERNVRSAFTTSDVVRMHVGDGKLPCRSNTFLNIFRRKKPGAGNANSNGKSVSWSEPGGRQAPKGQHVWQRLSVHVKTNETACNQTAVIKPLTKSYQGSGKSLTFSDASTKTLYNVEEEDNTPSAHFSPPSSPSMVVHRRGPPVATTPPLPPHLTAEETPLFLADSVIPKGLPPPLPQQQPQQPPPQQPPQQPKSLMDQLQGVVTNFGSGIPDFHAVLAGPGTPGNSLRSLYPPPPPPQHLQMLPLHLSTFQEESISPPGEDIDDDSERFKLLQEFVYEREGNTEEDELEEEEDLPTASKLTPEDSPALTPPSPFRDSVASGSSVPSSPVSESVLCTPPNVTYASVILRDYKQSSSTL
Compound,Ki (rat mGluR1) [µM],Ki (rat mGluR5) [µM]
N#Cc1cc(F)cc(S(=O)(=O)c2cnc3ccccc3c2-c2cccc(F)c2)c1 [Compound 207],> 0.5,< 0.2
O=S(=O)(c1cccc(F)c1)c1cnc2cc(F)ccc2c1-c1cccc(F)c1 [Compound 15],0.2 to 0.5,< 0.2
COc1cccc(-c2c(S(=O)(=O)c3ccc(C)c(Cl)c3)cnc3ccc(F)cc23)c1 [Compound 141],> 0.5,< 0.2
O=S(=O)(c1ccc(F)c(Cl)c1)c1cnc2c(F)c(Cl)ccc2c1-c1ccc(F)cc1 [Compound 205],> 0.5,< 0.2
COc1ccc(-c2c(S(=O)(=O)c3cc(F)cc(F)c3)cnc3ccc(F)cc23)cc1 [Compound 133],> 0.5,0.2 to 0.5
COc1ccc(S(=O)(=O)c2cnc3ccc(F)cc3c2-c2ccc(F)cc2)cc1 [Compound 143],> 0.5,0.2 to 0.5
N#Cc1cccc(S(=O)(=O)c2cnc3ccc(F)cc3c2-c2ccc(F)cc2)c1 [Compound 69],0.2 to 0.5,< 0.2
COc1ccc(-c2c(S(=O)(=O)c3cccc(F)c3)cnc3c(F)cccc23)cc1 [Compound 61],> 0.5,< 0.2
N#Cc1cccc(S(=O)(=O)c2cnc3ccccc3c2-c2cccc(F)c2)c1 [Compound 214],> 0.5,< 0.2
COc1cccc(-c2c(S(=O)(=O)c3ccc(C)c(C)c3)cnc3cc(F)ccc23)c1 [Compound 19],> 0.5,< 0.2
O=S(=O)(c1cc(F)cc(F)c1)c1cnc2c(F)cccc2c1-c1ccc(Cl)cc1 [Compound 116],0.2 to 0.5,< 0.2
O=S(=O)(c1ccc(F)c(F)c1)c1cnc2c(F)cccc2c1-c1cc(F)cc(F)c1 [Compound 236],0.2 to 0.5,< 0.2
O=S(=O)(c1ccc(Cl)c(Cl)c1)c1cnc2c(Cl)cccc2c1-c1cccc(Cl)c1 [Compound 7],< 0.2,< 0.2
N#Cc1cccc(S(=O)(=O)c2cnc3c(F)c(Cl)ccc3c2-c2cccc(Cl)c2)c1 [Compound 253],0.2 to 0.5,< 0.2
N#Cc1cc(F)cc(S(=O)(=O)c2cnc3c(N)cccc3c2-c2ccc(F)cc2)c1 [Compound 278],> 0.5,< 0.2
COc1ccc(S(=O)(=O)c2cnc3ccc(F)cc3c2-c2cccc(Cl)c2)cc1OC [Compound 70],> 0.5,> 0.5
COc1cccc(-c2c(S(=O)(=O)c3cc(Cl)cc(Cl)c3)cnc3c(F)cccc23)c1 [Compound 108],> 0.5,< 0.2
N#Cc1cccc(S(=O)(=O)c2cnc3cc(Cl)ccc3c2-c2ccc(Cl)cc2)c1 [Compound 177],> 0.5,< 0.2
O=S(=O)(c1ccc(F)c(Cl)c1)c1cnc2cc(F)ccc2c1-c1cccc(F)c1 [Compound 103],< 0.2,< 0.2
N#Cc1cc(S(=O)(=O)c2cnc3ccccc3c2-c2ccc(Cl)cc2)ccc1F [Compound 273],> 0.5,< 0.2
N#Cc1cc(F)cc(S(=O)(=O)c2cnc3cc(F)ccc3c2-c2ccc(Cl)cc2)c1 [Compound 268],> 0.5,< 0.2

Compound,Ki (rat mGluR1) [µM],Ki (rat mGluR5) [µM]
O=S(=O)(c1ccc(F)c(F)c1)c1cnc2c(F)cccc2c1-c1ccc(F)c(F)c1 [Compound 238],> 0.5,< 0.2
O=S(=O)(c1ccc(F)c(F)c1)c1cnc2c(F)cccc2c1-c1cccc(Cl)c1 [Compound 259],> 0.5,< 0.2
COc1cccc(-c2c(S(=O)(=O)c3ccc(C)c(F)c3)cnc3c(F)cccc23)c1 [Compound 113],> 0.5,< 0.2
Cc1ccc(S(=O)(=O)c2cnc3cc(F)ccc3c2-c2cccc(Cl)c2)cc1F [Compound 84],> 0.5,< 0.2
"O=S(=O)(c1ccc(F)c(F)c1)c1cnc2cc(Cl)ccc2c1-c1cccc(F)c1 [Compound 170, 7-chloro-3-(3,4-difluoro-benzenesulfonyl)-4-(3-fluoro-phenyl)-quinoline]",> 0.5,< 0.2
O=S(=O)(c1ccc(F)c(Cl)c1)c1cnc2cc(Cl)ccc2c1-c1ccccc1F [Compound 233],< 0.2,< 0.2
O=S(=O)(c1ccc(F)cc1)c1cnc2cc(F)ccc2c1-c1ccc(Cl)cc1 [Compound 76],> 0.5,< 0.2
O=S(=O)(c1ccc(F)c(F)c1)c1cnc2cc(F)ccc2c1-c1cccc(F)c1 [Compound 98],0.2 to 0.5,< 0.2
COc1ccc(S(=O)(=O)c2cnc3ccc(F)cc3c2-c2ccc(Cl)cc2)cc1Cl [Compound 78],> 0.5,< 0.2
COc1cccc(-c2c(S(=O)(=O)c3ccc(F)cc3)cnc3c(F)cccc23)c1 [Compound 23],> 0.5,< 0.2
O=S(=O)(c1ccc(F)c(Cl)c1)c1cnc2c(F)c(Cl)ccc2c1-c1ccc(Cl)cc1 [Compound 197],> 0.5,< 0.2
O=S(=O)(c1ccc(F)c(F)c1)c1cnc2c(F)c(Cl)ccc2c1-c1ccc(Cl)cc1 [Compound 204],> 0.5,< 0.2
N#Cc1cccc(S(=O)(=O)c2cnc3ccc(F)cc3c2-c2ccc(Cl)cc2)c1 [Compound 136],0.2 to 0.5,< 0.2
COc1cccc(-c2c(S(=O)(=O)c3cc(Cl)cc(Cl)c3)cnc3cc(F)ccc23)c1 [Compound 82],> 0.5,< 0.2
O=S(=O)(c1ccc(F)c(Cl)c1)c1cnc2ccc(F)cc2c1-c1ccc(Cl)cc1 [Compound 153],0.2 to 0.5,< 0.2
N#Cc1cc(S(=O)(=O)c2cnc3cc(Cl)ccc3c2-c2cccc(Cl)c2)ccc1F [Compound 242],< 0.2,< 0.2
COc1ccc(S(=O)(=O)c2cnc3cc(F)ccc3c2-c2cccc(Cl)c2)cc1Cl [Compound 47],0.2 to 0.5,< 0.2
COc1ccc(-c2c(S(=O)(=O)c3cccc(C#N)c3)cnc3cc(F)ccc23)cc1 [Compound 92],0.2 to 0.5,< 0.2
N#Cc1cc(S(=O)(=O)c2cnc3ccccc3c2-c2cccc(F)c2)ccc1F [Compound 206],> 0.5,< 0.2
N#Cc1cc(F)cc(S(=O)(=O)c2cnc3cc(F)ccc3c2-c2cccc(F)c2)c1 [Compound 228],> 0.5,< 0.2
O=S(=O)(c1cc(F)cc(F)c1)c1cnc2ccc(F)cc2c1-c1ccc(Cl)cc1 [Compound 132],> 0.5,0.2 to 0.5

# More lines, now with the values ahead:
Ki (rat mGluR1) [µM],Ki (rat mGluR5) [µM],Compound
> 0.5,< 0.2,Cc1ccc(S(=O)(=O)c2cnc3cc(F)ccc3c2-c2cccc(F)c2)cc1C [Compound 18]
0.2 to 0.5,< 0.2,O=S(=O)(c1cc(Cl)cc(Cl)c1)c1cnc2c(F)cccc2c1-c1ccc(Cl)cc1 [Compound 159]
> 0.5,< 0.2,O=S(=O)(c1ccc(F)c(F)c1)c1cnc2cc(Cl)ccc2c1-c1ccc(Cl)cc1 [Compound 175]
> 0.5,< 0.2,O=S(=O)(c1cccc(F)c1)c1cnc2cc(Cl)ccc2c1-c1cccc(F)c1 [Compound 168]
> 0.5,0.2 to 0.5,O=S(=O)(c1cc(F)cc(F)c1)c1cnc2ccc(F)cc2c1-c1ccc(F)cc1 [Compound 66]
> 0.5,< 0.2,N#Cc1cc(S(=O)(=O)c2cnc3ccccc3c2-c2ccc(F)cc2)ccc1F [Compound 211]
0.2 to 0.5,< 0.2,N#Cc1cccc(S(=O)(=O)c2cnc3cc(F)ccc3c2-c2ccc(F)cc2)c1 [Compound 39]
> 0.5,< 0.2,COc1ccc(-c2c(S(=O)(=O)c3ccc(OC)cc3)cnc3cc(F)ccc23)cc1 [Compound 13]
> 0.5,< 0.2,COc1cccc(S(=O)(=O)c2cnc3ccc(F)cc3c2-c2ccc(Cl)cc2)c1 [Compound 144]
> 0.5,< 0.2,O=S(=O)(c1cc(Cl)cc(Cl)c1)c1cnc2c(F)cccc2c1-c1ccc(F)c(F)c1 [Compound 220]
> 0.5,< 0.2,Cc1ccc(S(=O)(=O)c2cnc3ccc(F)cc3c2-c2ccc(F)cc2)cc1Cl [Compound 142]
> 0.5,< 0.2,COc1cccc(S(=O)(=O)c2cnc3cc(F)ccc3c2-c2ccc(F)cc2)c1 [Compound 44]
> 0.5,< 0.2,COc1cccc(-c2c(S(=O)(=O)c3ccc(OC)c(Cl)c3)cnc3ccc(F)cc23)c1 [Compound 75]
> 0.5,< 0.2,COc1ccc(-c2c(S(=O)(=O)c3ccc(F)c(F)c3)cnc3cc(F)ccc23)cc1 [Compound 99]
0.2 to 0.5,< 0.2,O=S(=O)(c1cccc(F)c1)c1cnc2c(F)cccc2c1-c1ccc(Cl)cc1 [Compound 59]
0.2 to 0.5,< 0.2,N#Cc1cccc(S(=O)(=O)c2cnc3cc(Cl)ccc3c2-c2ccc(F)cc2)c1 [Compound 241]
> 0.5,< 0.2,COc1ccc(-c2c(S(=O)(=O)c3cc(F)cc(F)c3)cnc3cc(F)ccc23)cc1 [Compound 89]
0.2 to 0.5,< 0.2,COc1ccc(-c2c(S(=O)(=O)c3ccc(F)c(Cl)c3)cnc3cc(F)ccc23)cc1 [Compound 104]
> 0.5,< 0.2,O=S(=O)(c1cc(Cl)cc(Cl)c1)c1cnc2c(F)cccc2c1-c1ccccc1F [Compound 223]
